The target of test [1] is T1, glucocorticoid receptor (Rattus norvegicus, UniProt P06536).
T1 construct: endogenous in cells; host or cells: HTC (rat hepatoma) cells, 100,000 x g cytosol
T1 sequence (P06536 1-795): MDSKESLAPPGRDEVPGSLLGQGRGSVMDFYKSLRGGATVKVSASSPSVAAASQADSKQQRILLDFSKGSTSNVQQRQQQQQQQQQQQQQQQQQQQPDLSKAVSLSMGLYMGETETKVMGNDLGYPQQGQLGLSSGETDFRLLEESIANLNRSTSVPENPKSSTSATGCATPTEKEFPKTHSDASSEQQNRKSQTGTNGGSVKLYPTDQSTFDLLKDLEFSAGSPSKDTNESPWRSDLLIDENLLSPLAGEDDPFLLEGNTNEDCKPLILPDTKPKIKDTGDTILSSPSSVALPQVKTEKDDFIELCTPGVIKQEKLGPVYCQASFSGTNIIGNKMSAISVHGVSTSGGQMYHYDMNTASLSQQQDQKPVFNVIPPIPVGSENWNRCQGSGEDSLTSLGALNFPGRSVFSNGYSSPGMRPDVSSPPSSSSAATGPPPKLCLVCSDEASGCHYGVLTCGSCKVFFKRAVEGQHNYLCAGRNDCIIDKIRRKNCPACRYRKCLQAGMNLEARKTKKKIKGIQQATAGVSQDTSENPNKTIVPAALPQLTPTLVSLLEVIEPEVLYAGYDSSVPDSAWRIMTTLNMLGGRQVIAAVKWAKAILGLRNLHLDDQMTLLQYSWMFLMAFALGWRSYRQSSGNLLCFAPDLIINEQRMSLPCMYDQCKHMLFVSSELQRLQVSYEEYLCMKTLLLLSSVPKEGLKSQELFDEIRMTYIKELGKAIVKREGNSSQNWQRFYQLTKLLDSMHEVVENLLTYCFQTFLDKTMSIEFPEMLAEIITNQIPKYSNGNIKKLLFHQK
As to the kind of experiment: competition for 3H-dexamethasone binding sites in HTC cytosol (glucocorticoid receptor affinity). The settings on record: Table 1; displacement of 25 nM 3H-DEX, HTC (rat hepatoma) cytosol, 3 hours on ice. The procedure:
(§1) LE II (mouse lung capillary endothelial) or HTC (rat hepatoma) cells were grown in Dulbecco's modified Eagle's (DMEM) medium plus 10% fetal calf serum (FCS), in 150 cm^2 T-flasks. Approximately 20 flasks of LE II cells or 10 flasks of HTC cells were needed for a 60-80 sample assay.
(§2) Cell monolayers were washed 3 times with Phosphate Buffered Saline (PBS) and harvested by scraping with a rubber policeman into an ice-cold sonication buffer of 0.25M sucrose; 10 mM Tris-HCl, pH 7.4; 5 mM ethylenediaminetetraacetic acid (EDTA); 5 mM dithiothereitol; and 10 mM sodium molybdate. All subsequent steps were performed at 4° C. The cells were pooled into a final volume of 8-12 mls, broken by sonication for 45 seconds with the microtip of a Branson sonifier at setting #3 and the residue was then centrifuged at 100,000 X g for 30 minutes with a Beckman L8-50, Ti50 rotor, at 40,000 rpm. […] Incubations were peformed in a final volume of 1 ml in 1.5 ml Eppendorf centrifuge tubes for 3 hours on ice.
(§3) Fine Sephadex G-50 gel was swollen and equilibrated against column buffer of 100 mM Tris-HCl, pH 7.8; and 3 mM CaCl2. Columns were poured to a final packed volume of 4.5 ml in 5 ml plastic disposable pipets.
(§4) The packed columns were then drained of buffer and the 1 ml incubated samples were applied to each. The samples were washed into the columns with 0.5 ml of column buffer, and the exclusion volumes containing the protein peaks were eluted with another 1 ml of column buffer and collected. Aliquots of 750 μl of Biorad protein reagent were diluted 1:5 in H2 O. OD630 nm reading were compared with those obtained for a bovine serum albumin standard curve.

Test [2] concerns the target T2, glucocorticoid receptor (Mus musculus, UniProt P06537).
T2 construct: endogenous in cells; host or cells: LE II (mouse lung capillary endothelial) cells, 100,000 x g cytosol
T2 sequence (P06537 1-792): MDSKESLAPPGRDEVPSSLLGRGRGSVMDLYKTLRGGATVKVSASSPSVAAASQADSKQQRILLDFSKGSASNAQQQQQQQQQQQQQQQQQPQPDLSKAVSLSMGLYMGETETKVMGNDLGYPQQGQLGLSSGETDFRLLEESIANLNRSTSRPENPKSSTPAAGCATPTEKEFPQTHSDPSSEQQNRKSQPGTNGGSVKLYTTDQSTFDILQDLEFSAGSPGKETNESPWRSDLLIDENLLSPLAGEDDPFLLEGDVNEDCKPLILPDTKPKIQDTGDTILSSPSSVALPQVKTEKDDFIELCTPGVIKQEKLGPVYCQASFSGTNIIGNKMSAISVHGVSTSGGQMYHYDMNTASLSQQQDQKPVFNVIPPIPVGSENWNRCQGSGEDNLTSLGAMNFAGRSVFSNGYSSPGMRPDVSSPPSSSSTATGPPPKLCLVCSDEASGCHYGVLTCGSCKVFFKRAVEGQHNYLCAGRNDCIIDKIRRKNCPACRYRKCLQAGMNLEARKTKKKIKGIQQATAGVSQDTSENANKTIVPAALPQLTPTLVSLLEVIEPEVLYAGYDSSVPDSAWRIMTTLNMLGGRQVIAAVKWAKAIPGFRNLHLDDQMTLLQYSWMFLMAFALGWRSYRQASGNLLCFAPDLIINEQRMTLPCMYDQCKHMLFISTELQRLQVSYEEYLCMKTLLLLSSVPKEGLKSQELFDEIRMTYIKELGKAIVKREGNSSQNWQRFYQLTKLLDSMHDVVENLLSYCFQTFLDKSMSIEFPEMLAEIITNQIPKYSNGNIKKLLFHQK
As to the kind of experiment: competition for 3H-dexamethasone binding sites in LE II cytosol (glucocorticoid receptor affinity). The settings on record: Table 1; displacement of 25 nM 3H-DEX, LE II (mouse lung capillary endothelial) cytosol, 3 hours on ice; read-out: IC50 Binding LEII. As for the experimental part:
as §1, §2, §3, §4

On to `CCC(=O)O[C@]1(C(=O)OC)[C@@H](C)C[C@H]2[C@@H]3CCC4=CC(=O)C=C[C@]4(C)[C@@]3(F)[C@@H](O)C[C@@]21C` [compound 1], for which the IC50 (commonly the midpoint of a concentration-inhibition curve) in test [1] was 5 nM; in test [2], 2 nM.

In the case of `CCC(=O)O[C@]1(C(=O)OC)[C@@H](C)C[C@H]2[C@@H]3CC(F)C4=C(F)C(=O)C=C[C@]4(C)[C@@]3(F)[C@@H](O)C[C@@]21C` (stereo partly drawn) [compound 3], the IC50 in test [1] and in test [2] was 15 nM in each case.

Consider `CCCC(=O)O[C@]1(C(=O)OC)[C@@H](C)C[C@H]2[C@@H]3CC(F)C4=CC(=O)C=C[C@]4(C)[C@@]3(F)[C@@H](O)C[C@@]21C` (stereo partly drawn) [compound 4], for which the IC50 in test [1] and in test [2] was 0.25 nM each time.

Turning to `CCC(=O)O[C@]1(C(=O)OC)[C@H](C)C[C@H]2[C@@H]3CC(F)C4=CC(=O)C=C[C@]4(C)[C@@]3(F)[C@@H](O)C[C@@]21C` (stereo partly drawn) [compound 7], the IC50 in test [1] amounted to 4 nM; in test [2], 0.25 nM.

With `CCC(=O)O[C@]1(C(=O)OC)[C@H](C)C[C@H]2[C@@H]3CC(F)C4=C(F)C(=O)C=C[C@]4(C)[C@@]3(F)[C@@H](O)C[C@@]21C` (stereo partly drawn) [compound 8], the IC50 in test [1] and in test [2] was 0.25 nM in each case.

Regarding `CCCC(=O)O[C@]1(C(=O)OC)[C@H](C)C[C@H]2[C@@H]3CC(F)C4=CC(=O)C=C[C@]4(C)[C@@]3(F)[C@@H](O)C[C@@]21C` (stereo partly drawn) [compound 9], the IC50 in test [1] and in test [2] was 0.025 nM each time.

The values above are taken from US4599331A, “Etianic acids as antiangiogenics” (Syntex (U.S.A.) Inc., priority 1984, dated 1986).
